Experimental data taken from patent US7700822B2, “Modulation of cytochrome P450 reductase activity” (Cancer Research Technology Limited, priority 2002, dated 2010).

Legend:
[1] = test system: hepatic P450 monoxygenase activities; assay: O-dealkylation of 7-methoxyresorufin in hepatic microsomes; conditions: CPRlox/- +CreALB mice, nmol metabolite per nmol P450
[2] = test system: control, CPR heterozygous null and hepatic CPR null mice; assay: Pentobarbital sleep time (regain of righting reflex); format: in vivo, mouse; conditions: 20 mg/kg i.p.
Description: c Time taken for regain of righting reflex in adult male mice of various genotypes following treatment with sodium pentobarbital at 20 mg/kg i.p. (n=3). Values are expressed as mean±SEM.
Pentobarbital sleep time—adult male CPR^lox/lox+Cre^ALB, CPR^lox/−+Cre^ALB, CPR^lox/− and CPR^+/++Cre^ALB mice (n=3) were given a single intraperitoneal (i.p.) dose of sodium pentobarbitone (Sagatal) at 20 mg/kg body weight. The time taken for the mice to lose, and subsequently to regain, their righting reflex was measured.
Cytochrome P450s involved in drug metabolism are distributed throughout the tissues of the body; it has been estimated that a significant proportion of drug metabolism (up to 30%) may be extra-hepatic. In order to test the level of extra-hepatic metabolism as well as the in vivo effects of hepatic CPR nulls on drug disposition, we measured barbiturate-induced sleeping times. This method has been used since the 1960s as an indicator of drug metabolising activity.

[3] = test system: hepatic P450 monoxygenase activities; assay: Microsomal hydroxylation of testosterone in liver microsomes; conditions: liver microsomes of hepatic CPR nulls of both sexes

`COc1ccc2nc3ccc(=O)cc-3oc2c1` [7-methoxyresortifin] was tested, and the “reduction of O-dealkylation” value ([1]; females) was 98.5% and the “reduction of O-dealkylation” value ([1]; males) was 99.5%.
`CCCC(C)C1(CC)C(=O)NC(=O)NC1=O` (stereo not drawn) [pentobarbitone] was tested, and the average sleeping period ([2]; CPR heterozygous null mice (CPR+/-)) was “approximately 50 minutes”, the induction of sleep ([2]; control mice) was “failed to induce sleep” and the sleeping period ([2]; mice lacking hepatic CPR (CPRlox/- +CreALB or CPRlox/lox +CreALB)) was greater than 2 h.
`C[C@]12CC[C@H]3[C@@H](CCC4=CC(=O)CC[C@@]43C)[C@@H]1CC[C@@H]2O` [testosterone] was tested, and the 16-hydroxylation of testosterone [3] was “undetectable”.
